Test system: Bacillus subtilis spores
Experiment: Sporicidal activity against Bacillus subtilis spore suspension (cfu pour-plate count vs distilled water controls)
Type: cell-based
Details: spore suspension diluted 1:100 into composition
Method: Spore suspensions were prepared by streaking standard agar plates with Bacillus subtilis and then incubating the plates for 48-72 hours at 37° C. The resulting bacteria and their spores were scraped from the plates and suspended by agitation in a 50% ethanol-water solution for four hours in order to lyse the vegetative cells. The spores were collected by centrifugation, washed three times and then suspended in 50% ethanol-water, resulting in a spore titer of 10^9 spores/mL. […] After treatment, the spore suspensions were diluted in distilled water and duplicate aliquots from each dilution were pour-plated on tripticase soy agar. Total colony-forming units (cfu) were counted after incubation at 37° C. for 24 hours. Sporicidal activity was directly proportional to the reduction of cfu compared to the distilled water controls.
Test results from representative compositions are summarized in Table 1 and the associated graph of the data (FIG. 2). In addition, test data for exposure to 0.1% L-alanine in the absence of sporicidal agents is included.

**Q.** What does the source list for `C[C@H](N)C(=O)O` [L-alanine]?
**A.** Test results of Spore-inactivating Compositions vs. Exposure Time (cfu compared to distilled water controls) (exposure time 0.00 hrs): 100.0%; Test results of Spore-inactivating Compositions vs. Exposure Time (cfu compared to distilled water controls) (exposure time 0.25 hrs): 106.0%; Test results of Spore-inactivating Compositions vs. Exposure Time (cfu compared to distilled water controls) (exposure time 0.50 hrs): 111.0%; Test results of Spore-inactivating Compositions vs. Exposure Time (cfu compared to distilled water controls) (exposure time 1.00 hrs): 113.0%; Test results of Spore-inactivating Compositions vs. Exposure Time (cfu compared to distilled water controls) (exposure time 4.00 hrs): 116.0%
